# Source: paper PMC9873282, “Design, synthesis and evaluation of quinoline-O-carbamate derivatives as multifunctional agents for the treatment of Alzheimer’s disease” (Journal of Enzyme Inhibition and Medicinal Chemistry, 2023)
# Key:
# [1] = test system: NO; test: NO release in LPS-stimulated BV-2 cells (Griess method); assay type: cell-based; details: 1 µg/mL LPS 24 h
# Experimental: (§1) Firstly, the cytotoxicity of compounds 3a, 3c, 3e, 3f, 3k, 3m and 3n were tested using CCK8 assay.
# (§2) BV-2 cells (2 × 10^5 cells/well) were seeded in a 24-well cell culture plates. The cells were divided into blank control group, model group (1 µg/mL LPS), LPS + 2 µM compound group, LPS + 1 µM compound group. Each drug group was pre-treated with corresponding concentration of drug solution for 8 h. After 8 h, the culture medium was aspirated out. Except for the blank control group, which was added with DMEM medium, the other groups were stimulated with 1 µg/mL LPS for 24 h. Then cell supernatant was aspirated and centrifuged at 3000 rpm for 3 min. The content of NO in cell culture supernatant was determined by Griess method, and the levels of cytokines IL-6 and IL-1β in cell culture supernatant were determined by IL-6 ELISA kit and IL-1β ELISA kit, respectively.
# [2] = test system: Aβ25-35-induced PC12 cells injury; test: Neuroprotective effect on Aβ25-35-induced PC12 cells injury (CCK-8); assay type: cell-based; details: 25 µM Aβ25-35; model cell viability 57.3%
# Experimental: (§3) The neuroprotective effect of compounds 3a, 3c, 3e, 3f, 3k, 3m, and 3n on Aβ25–35-induced PC12 cells injury were evaluated using CCK-8 assay. […] Furthermore, as shown in Figure 12(B), when PC12 cells were exposed to 25 µM Aβ25-35, the cell viability sharply declined to 57.3% (p < 0.01) compared with untreated group.
# • Preparation of Aβ25-35 aggregation. Aβ25-35 was purchased from sigma. 1 mg Aβ25-35 was dissolved in 943 µL of sterilised deionised water to obtain 1 mM stock solution, aliquoted, –20 °C preservation. Removing the appropriate volume in a 48-well plate and incubated in a 37 °C incubator for two days to allow its ageing to accumulate and produce neurotoxicity. After aggregation was completed, the solution was diluted with PBS to get 25 µM solution of Aβ25-35 aggregation. • Neuroprotective effects of compounds on Aβ25-35-induced PC12 cells injury
# (§4) The PC12 cells during the logarithmic growth phase were digested and centrifuged with pancreatic enzyme solution, the cells were resuspended by adding the prepared media solution, and piped evenly with a pipette to seed in a 96-well cell culture plate (cell concentration adjusted to 2.0 × 10^4 cell·mL^−1). Each well was added 100 µL complete medium was added to each well and incubated at 37 °C and 5% CO2 for 24 h.
# After incubation for 24 h, PC12 cells were divided into blank group, control group, Aβ25-35 model group and tested compounds group (5, 10, 20 µM). Then the original medium was discarded, and 100 µL new complete medium were added to PC12 cells, and the tested compounds group was added to 100 µL complete medium containing different concentrations (5, 10, and 20 µM) of tested compounds, incubated for 2 h at 37 °C, 5% CO2 conditions. After incubation for 2 h, 10 µL Aβ25-35 solution was added to the tested compounds groups and model group (the final concentration of Aβ25-35 was 25 µM), and incubated for 24 h at 37 °C, 5% CO2 conditions, 10 µL CCK-8 was added to each well and further incubated for 1 h at 37 °C and 5% CO2. Finally, the OD value was measured at 450 nm using a microplate reader, and each concentration set three wells. The cell survival rate (%) was determined according to the following formula: cell viability (%) = {(ODdrug−ODblank)}/{(ODcontrol−ODblank)}.
# [3] = biological target: T1, eeAChE (Electrophorus electricus, UniProt O42275); test: biochemical; parameters: species or system electric eel
# T1 construct: eeAChE, from the electric eel; purchased Sigma Aldrich; host or cells: electric eel (natural source)
# Experimental: (§5) The inhibitory activities of the synthesised compounds against eeAChE (from electric eel) and eqBuChE (from equine serum) were tested by the modified Ellman’s method[26]^,[27]. […] The determination of AChE and BuChE inhibitory potency of the synthesised compounds were evaluated by Ellman assay, the detailed procedure referred to our previous work[26]^,[27].
# [4] = test system: BV-2 cells; test: Cytotoxicity on BV-2 cells (CCK8 assay); assay type: cell-based; details: compounds at 2 µM
# Experimental: as §1
# BV-2 cells were cultured in DMEM containing 10% foetal bovine serum, 100 U/mL penicillin, 100 U/mL streptomycin, and 1% nonessential amino acid at 37 °C with 5% CO2.
# BV-2 cells in logarithmic growth stage were digested and centrifuged, and then resuspended in DMEM medium containing 1% penicillin-streptomycin and 10% foetal bovine serum. The cells was adjusted to 1.2 × 10^4 cells/well, and then seeded evenly in 96-well cell culture plates. The cells were incubated for 36 h at 37 °C with 5% CO2. After incubation, the cells were added to different concentrations (10 and 2 µM) of tested compounds, and incubated for 24 h at 37 °C with 5% CO2. Then, 10 µL CCK-8 solution was added to each well, and incubated for another 1 h at 37 °C with 5% CO2. The OD values were tested at […]. The cell viability (%) = {(ODdrug−ODblank)}/{(ODcontrol−ODblank)} × 100%.
# [5] = test system: PC12 cells; test: Cytotoxicity on PC12 cells; assay type: cell-based; details: at concentration below 40 µM
# Experimental: as §3, §4
# [6] = biological target: T2, eqBuChE (Equus caballus, UniProt P81908); test: biochemical; parameters: species or system equine
# T2 construct: eqBuChE, from equine serum; purchased Sigma Aldrich; host or cells: equine serum (natural source)
# Experimental: as §5
# [7] = test system: IL-1β; test: IL-1β production in LPS-stimulated BV-2 cells (ELISA); assay type: cell-based; details: 1 µg/mL LPS 24 h
# Experimental: as §1, §2
# [8] = biological target: T3, hBuChE (Homo sapiens, UniProt P06276); test: biochemical
# T3 construct: hBuChE, human serum BuChE; purchased Sigma Aldrich; host or cells: human serum (natural source)
# Experimental: (§6) Acetylcholinesterase (eeAChE, from the electric eel; hAChE, from human erythrocytes AChE), butyrylcholinesterase (eqBuChE, from equine serum; hBuChE, human serum BuChE), 5,5′-dithiobis-2-nitrobenzoic acid (Ellman’s reagent, DTNB), acetylthiocholine chloride (ATC), and butyrylthiocholine chloride (BTC) were purchased form Sigma Aldrich. The determination of AChE and BuChE inhibitory potency of the synthesised compounds were evaluated by Ellman assay, the detailed procedure referred to our previous work[26]^,[27].
# [9] = biological target: T4, hAChE (Homo sapiens, UniProt P22303); test: biochemical
# T4 construct: hAChE, from human erythrocytes AChE; purchased Sigma Aldrich; host or cells: human erythrocytes (natural source)
# Experimental: as §6
# [10] = test system: IL-6; test: IL-6 production in LPS-stimulated BV-2 cells (ELISA); assay type: cell-based; details: 1 µM and 2 µM; 1 µg/mL LPS 24 h
# Experimental: as §1, §2
# T3 sequence (P06276 29-602): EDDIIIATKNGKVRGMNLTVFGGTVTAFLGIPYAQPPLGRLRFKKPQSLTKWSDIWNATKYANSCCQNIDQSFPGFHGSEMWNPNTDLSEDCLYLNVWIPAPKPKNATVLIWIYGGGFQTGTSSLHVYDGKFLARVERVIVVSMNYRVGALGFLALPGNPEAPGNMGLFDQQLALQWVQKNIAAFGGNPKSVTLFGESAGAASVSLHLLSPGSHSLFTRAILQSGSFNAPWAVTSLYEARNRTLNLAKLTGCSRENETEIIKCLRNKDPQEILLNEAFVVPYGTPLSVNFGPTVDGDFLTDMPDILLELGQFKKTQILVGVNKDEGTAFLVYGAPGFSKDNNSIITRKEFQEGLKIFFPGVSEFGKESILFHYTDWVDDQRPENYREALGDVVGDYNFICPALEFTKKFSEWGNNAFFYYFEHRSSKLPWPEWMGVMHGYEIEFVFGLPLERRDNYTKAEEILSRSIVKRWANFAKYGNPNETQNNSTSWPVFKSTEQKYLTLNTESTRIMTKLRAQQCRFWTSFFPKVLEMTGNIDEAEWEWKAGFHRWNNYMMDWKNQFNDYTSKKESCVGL
# T2 sequence (P81908 whole entry): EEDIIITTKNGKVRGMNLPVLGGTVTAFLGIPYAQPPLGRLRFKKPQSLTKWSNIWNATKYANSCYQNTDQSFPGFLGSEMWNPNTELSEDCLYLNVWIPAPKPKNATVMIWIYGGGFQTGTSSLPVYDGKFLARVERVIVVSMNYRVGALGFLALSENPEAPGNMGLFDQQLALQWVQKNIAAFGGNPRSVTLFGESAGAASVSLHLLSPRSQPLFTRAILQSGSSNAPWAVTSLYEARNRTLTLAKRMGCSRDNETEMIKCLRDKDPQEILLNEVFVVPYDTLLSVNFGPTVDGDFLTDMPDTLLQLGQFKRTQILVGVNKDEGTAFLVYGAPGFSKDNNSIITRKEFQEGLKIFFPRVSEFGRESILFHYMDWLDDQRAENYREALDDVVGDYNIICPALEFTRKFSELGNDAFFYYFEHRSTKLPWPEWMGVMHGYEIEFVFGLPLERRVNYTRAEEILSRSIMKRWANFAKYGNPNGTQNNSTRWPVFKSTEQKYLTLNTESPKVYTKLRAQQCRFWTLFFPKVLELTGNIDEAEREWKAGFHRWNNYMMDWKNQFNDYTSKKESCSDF
# T1 sequence (O42275 24-633): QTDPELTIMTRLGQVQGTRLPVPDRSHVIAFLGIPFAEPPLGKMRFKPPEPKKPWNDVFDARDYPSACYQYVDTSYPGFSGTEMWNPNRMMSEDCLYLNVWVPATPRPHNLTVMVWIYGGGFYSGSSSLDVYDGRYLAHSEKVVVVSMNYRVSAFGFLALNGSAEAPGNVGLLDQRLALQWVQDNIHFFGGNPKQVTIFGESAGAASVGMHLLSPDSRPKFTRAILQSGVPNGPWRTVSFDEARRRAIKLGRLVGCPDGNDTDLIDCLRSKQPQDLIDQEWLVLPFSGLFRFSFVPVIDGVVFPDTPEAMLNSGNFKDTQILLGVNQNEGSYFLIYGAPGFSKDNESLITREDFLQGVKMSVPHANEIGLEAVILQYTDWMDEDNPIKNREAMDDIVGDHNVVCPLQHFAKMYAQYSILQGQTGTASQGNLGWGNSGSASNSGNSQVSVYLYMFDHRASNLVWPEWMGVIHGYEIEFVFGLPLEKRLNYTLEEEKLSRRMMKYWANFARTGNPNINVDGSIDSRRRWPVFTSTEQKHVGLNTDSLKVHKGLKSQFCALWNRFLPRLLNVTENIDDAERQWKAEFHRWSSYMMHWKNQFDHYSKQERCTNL
# T4 sequence (P22303 32-617 isoform P22303-2 limits assumed): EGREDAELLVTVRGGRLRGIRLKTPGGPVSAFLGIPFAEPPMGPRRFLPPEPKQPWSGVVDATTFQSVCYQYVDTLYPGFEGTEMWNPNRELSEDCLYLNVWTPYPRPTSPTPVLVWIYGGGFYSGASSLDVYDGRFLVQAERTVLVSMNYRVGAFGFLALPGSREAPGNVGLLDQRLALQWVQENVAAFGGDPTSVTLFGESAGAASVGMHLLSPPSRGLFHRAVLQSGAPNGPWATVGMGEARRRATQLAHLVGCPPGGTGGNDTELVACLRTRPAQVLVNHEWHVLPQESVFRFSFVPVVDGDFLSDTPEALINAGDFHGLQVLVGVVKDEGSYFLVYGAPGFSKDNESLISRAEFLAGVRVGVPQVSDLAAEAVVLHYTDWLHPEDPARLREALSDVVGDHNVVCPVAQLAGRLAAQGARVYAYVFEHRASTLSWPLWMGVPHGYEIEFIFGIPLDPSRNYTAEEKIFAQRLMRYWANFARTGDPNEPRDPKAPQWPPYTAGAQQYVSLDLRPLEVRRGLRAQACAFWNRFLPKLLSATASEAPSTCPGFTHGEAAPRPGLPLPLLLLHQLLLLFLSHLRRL
smiles,measurement,setting,value
"CN(C)C(=O)Oc1cccc2ncccc12 [Compound 3e, Quinolin-5-yl dimethylcarbamate]",release volume of NO,[1],significantly decreased
same,neuroprotective effect on Aβ25-35-induced PC12 cells injury,[2],remarkable neuroprotective effects at 5 and 10 µM
same,IC50,[3],4.5 ± 0.04 µM
same,cell viability of BV-2 cells,[4],did not show obvious change
same,cytotoxicity on PC12 cells,[5],did not show any cytotoxicity
same,IC50,"[6]; IC50 ± SD eqBuChE, BuChE from equine serum",0.94 ± 0.07 µM
same,SI = IC50 (AChE)/IC50 (BuChE),[6]; eeAChE/eqBuChE,4.8
same,levels of IL-1β compared with model group,[7],significantly decreased
same,IC50,"[8]; IC50 ± SD hBuChE, from human serum",3.7 ± 0.05 µM
same,SI = IC50 (AChE)/IC50 (BuChE),[8]; hAChE/hBuChE,2.8
same,IC50,[9],10.4 ± 0.21 µM
same,levels of IL-6 compared with model group,[10],significantly decreased
